# According to article PMC4174574 (Molecular cancer therapeutics, 2013):
# Columns and labels:
# [1] = target: T1, Mcl-1 (Homo sapiens, UniProt Q07820); settings: cited from earlier work
# [2] = system: wild type (WT) murine embryonic fibroblasts (MEF); settings: 10 μM, 24 h
# [3] = system: Panc-1 cells; settings: Panc-1, 24 h, anti-Bax 6A7
# [4] = system: Capan-2; settings: read-out: IC50 cell growth inhibition, Capan-2; 4 days treatment
# [5] = target: Mcl-1/Bax and Mcl-1/Bak in BxPC-3 cells (Homo sapiens, UniProt Q07820); settings: BxPC-3, 4 μM, 24 h
# [6] = target: T2, A1/Bfl-1 (Homo sapiens, UniProt Q16548); test: FP-based competitive binding assay using fluorescent labeled Bid BH3 peptide; settings: for Ki: read-out: Ki ± SD, A1/Bfl-1, competitive FP assay, Bid BH3 peptide
# T2 sequence (Q16548 1-175): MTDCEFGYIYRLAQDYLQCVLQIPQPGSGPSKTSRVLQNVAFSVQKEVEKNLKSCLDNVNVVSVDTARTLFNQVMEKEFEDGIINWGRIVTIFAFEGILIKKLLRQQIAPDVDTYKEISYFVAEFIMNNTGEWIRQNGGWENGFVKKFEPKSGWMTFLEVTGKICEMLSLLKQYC
# [7] = target: T3, Bcl-w (Homo sapiens, UniProt Q92843); test: as above; settings: for Ki: read-out: Ki ± SD, Bcl-w, competitive FP assay, Bid BH3 peptide
# T3 sequence (Q92843 1-193): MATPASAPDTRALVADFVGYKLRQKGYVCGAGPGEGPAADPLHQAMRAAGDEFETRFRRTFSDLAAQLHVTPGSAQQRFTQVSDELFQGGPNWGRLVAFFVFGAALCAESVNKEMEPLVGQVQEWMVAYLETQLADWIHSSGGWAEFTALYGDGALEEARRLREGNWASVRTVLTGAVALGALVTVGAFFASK
# [8] = system: Panc-1; settings: read-out: IC50 cell growth inhibition, Panc-1; 4 days treatment
# [9] = system: SCID mice; settings: mouse, in vivo
# [10] = system: BxPC-3 xenograft; test: BxPC-3 xenograft efficacy in SCID mice; type: in vivo; settings: 60 mg/kg i.v.; for Tumor growth inhibition in comparison with controls: 5 days a week for two weeks
# [11] = system: BxPC-3 cells; test: Induction of apoptosis; settings: BxPC-3 transfected with control siRNA, 3.5 μM, 72 h
# [12] = system: Panc-1 cells; settings: Panc-1, 24 h treatment
# [13] = target: T4, Bcl-2 (Homo sapiens, UniProt P10415); test: FP-based competitive binding assay using fluorescent labeled Bid BH3 peptide
# [14] = target: cellular Mcl-1 (Homo sapiens, UniProt Q07820); test: Biotin-labeled Noxa BH3 peptide streptavidin pull-down from 2LMP cell lysate; type: binding
# [15] = system: BxPC-3 cells; settings: BxPC-3, 24 h, 3 and 10 μM, densitometry
# [16] = system: MiaPaCa-2; settings: read-out: IC50 cell growth inhibition, MiaPaCa-2; 4 days treatment
# [17] = target: T4, Bcl-2; settings: solution competitive SPR, immobilized Bid peptide
# [18] = target: T1, Mcl-1; type: binding
# [19] = system: Panc-1 cells; test: Induction of apoptosis, Annexin V/PI double staining flow cytometry; type: cell-based, human
# [20] = system: AsPC-1 cells; settings: AsPC-1, highest tested concentration 20 μM
# [21] = Metabolic stability in pooled mice liver microsomes; type: in vitro ADME
# [22] = system: BxPC-3; settings: read-out: IC50 cell growth inhibition, BxPC-3; 4 days treatment
# [23] = system: AsPC-1; settings: read-out: IC50 cell growth inhibition, AsPC-1; 4 days treatment
# [24] = system: Bax/Bak-deficient (DKO) MEFs; settings: 10 μM, 24 h
# [25] = system: BxPC-3 cells; test: Cell growth inhibition; settings: BxPC-3 transfected with control siRNA, 3.5 μM, 72 h
# [26] = system: BxPC-3 cells; settings: BxPC-3, 24 h, anti-Bax 6A7
# [27] = target: T5, Bcl-xL (Homo sapiens, UniProt Q07817); settings: solution competitive SPR, immobilized Bid peptide
# [28] = target: T5, Bcl-xL; test: FP-based competitive binding assay using fluorescent labeled Bid BH3 peptide
# [29] = target: T1, Mcl-1; test: as above
# T5 sequence (Q07817 whole entry): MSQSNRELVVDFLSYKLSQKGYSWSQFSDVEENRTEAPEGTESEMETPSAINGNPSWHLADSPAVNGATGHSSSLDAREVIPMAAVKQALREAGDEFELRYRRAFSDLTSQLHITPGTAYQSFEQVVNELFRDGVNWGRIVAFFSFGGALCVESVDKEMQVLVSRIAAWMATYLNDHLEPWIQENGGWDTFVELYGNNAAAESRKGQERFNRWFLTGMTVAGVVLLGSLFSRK
# T4 sequence (P10415 whole entry): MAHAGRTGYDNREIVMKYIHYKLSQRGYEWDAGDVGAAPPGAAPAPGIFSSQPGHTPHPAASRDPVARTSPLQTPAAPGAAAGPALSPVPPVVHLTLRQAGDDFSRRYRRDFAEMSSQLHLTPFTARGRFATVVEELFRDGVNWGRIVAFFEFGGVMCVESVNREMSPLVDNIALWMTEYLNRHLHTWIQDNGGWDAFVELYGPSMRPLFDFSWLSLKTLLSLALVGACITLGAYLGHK
# Sequence of cellular Mcl-1 (Q07820 whole entry): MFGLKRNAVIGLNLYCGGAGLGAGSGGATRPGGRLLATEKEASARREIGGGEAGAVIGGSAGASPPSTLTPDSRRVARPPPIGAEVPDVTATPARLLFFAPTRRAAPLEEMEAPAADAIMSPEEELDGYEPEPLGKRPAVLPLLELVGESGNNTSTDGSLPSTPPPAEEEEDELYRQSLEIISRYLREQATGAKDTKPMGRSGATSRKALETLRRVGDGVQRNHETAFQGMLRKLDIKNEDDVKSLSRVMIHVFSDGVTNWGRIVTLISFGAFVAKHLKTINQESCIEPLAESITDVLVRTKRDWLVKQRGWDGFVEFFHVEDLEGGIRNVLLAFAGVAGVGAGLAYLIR
# T1 sequence (Q07820 whole entry): as above
# Sequence of Mcl-1/Bax and Mcl-1/Bak in BxPC-3 cells (Q07820 whole entry): as above
compound,measurement,setting,value
CN(C)CC[C@H](CSc1ccccc1)Nc1ccc(S(=O)(=O)NC(=O)c2ccc(N3CCN(Cc4ccccc4-c4ccc(Cl)cc4)CC3)cc2)cc1[N+](=O)[O-] [ABT-737],Binding to Mcl-1,[1],fails to bind
O=C(O)CSc1cc(NS(=O)(=O)c2ccc(Br)cc2)c2ccccc2c1O [UMI-77],Apoptosis in MEF WT cells,[2],more than 60%
same,Concentration from which activated Bax is substantially increased,[3],≥ 5 µM
same,IC50,[4],5.5 µM
same,Endogenous protein-protein interactions of Bax and Bak with Mcl-1,[5],inhibition of the endogenous protein-protein interactions of Bax and Bak with Mcl-1
same,Fold lower affinity to A1/Bfl-1 than to Mcl-1,[6]; FP Ki ratio,11 fold
same,Ki,[6],5.33 ± 1 µM
same,Fold decreased binding to Bcl-w vs Mcl-1,[7]; FP Ki ratio,17 fold
same,Ki,[7],8.19 ± 1.91 µM
same,IC50,[8],4.4 µM
same,"Histopathology (H&E) of kidney, liver and pancreas",[9],did not cause damage
same,Positive apoptotic cells of tumor sections (TUNEL) vs control group,[10],significantly increased
same,Survivin in tumor tissue lysates (western blot),[10],significant decrease of survivin
same,Tumor growth inhibition in comparison with controls,[10]; day 19 (p < 0.0001),65%
same,Tumor growth inhibition in comparison with controls,[10]; day 22 (p < 0.003),56%
same,Induction of apoptosis,[11],7 fold
same,Concentration from which cytochrome c and Smac are released from mitochondria,[12],≥ 10 µM
same,Fold reduced binding to Bcl-2 vs Mcl-1,[13]; FP Ki ratio,more than 50 fold
same,Ki,"[13]; read-out: Ki ± SD, Bcl-2, competitive FP assay, Bid BH3 peptide",23.8 ± 1.81 µM
same,Concentration from which BL-Noxa / cellular Mcl-1 interaction is blocked,[14],≥ 10 µM
same,Disruption of BL-Noxa / cellular Mcl-1 interaction,[14],effectively disrupt the interactions between BL-Noxa and cellular Mcl-1 in a dose dependent manner
same,Cleaved caspase-3 versus DMSO control,[15],statistically significant cleaved caspase-3 versus DMSO control
same,IC50,[16],12.5 µM
same,Fold decreased binding to Bcl-2 vs Mcl-1 (SPR),[17],more than 30 fold
same,Fold improved binding affinity to Mcl-1 in comparison with UMI-59 (SPR),[18]; SPR IC50 ratio,4 fold
same,IC50,"[18]; read-out: IC50, Mcl-1 (SPR), solution competitive SPR, immobilized Bid peptide",0.31 µM
same,Early apoptotic cells,"[19]; Panc-1, 5 μM, 24 hours",15%
same,Early apoptotic cells,"[19]; Panc-1, 5 μM, 48 hours",21%
same,Early apoptotic cells,"[19]; Panc-1, 10 μM, 24 hours",21%
same,Early apoptotic cells,"[19]; Panc-1, 10 μM, 48 hours",49%
same,Induction of early apoptosis,[20],8%
same,Microsomal half-life (T1/2),[21],45 min
same,IC50,[22],3.4 µM
same,IC50,[23],16.1 µM
same,Apoptotic cells in MEF DKO cells,[24],16%
same,Cell growth inhibition,[25],50%
same,Concentration from which activated Bax is substantially increased,[26],≥ 5 µM
same,Fold decreased binding to Bcl-xL vs Mcl-1 (SPR),[27],more than 30 fold
same,Fold reduced binding to Bcl-xL vs Mcl-1,[28]; FP Ki ratio,more than 50 fold
same,Ki,"[28]; read-out: Ki ± SD, Bcl-xL, competitive FP assay, Bid BH3 peptide",33 ± 4.33 µM
same,Potency for binding to Mcl-1 relative to 1 (UMI-59),[29]; FP Ki ratio,three times higher potency
same,Ki,"[29]; read-out: Ki ± SD, Mcl-1, competitive FP assay, Bid BH3 peptide",0.49 ± 0.06 µM
O=C(O)CSc1cc(NS(=O)(=O)c2cccs2)c2ccccc2c1O [UMI-59],Ki,[6],6.14 ± 1 µM
same,Ki,[7],37.5 ± 7.96 µM
same,Disruption of BL-Noxa / cellular Mcl-1 interaction,[14],effectively disrupt the interactions between BL-Noxa and cellular Mcl-1 in a dose dependent manner
